Data published in the supplement of paper PMC10307832.

Columns and labels:
Assay in all cases: relative viability (nuclei count vs DMSO), 5 days (fraction); higher = more cells survive
201T = test system: 201T
How it was run: (§1)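 After 5 days of treatment, lung cancer cells in 1536-well plates were fixed and stained in a single step (final 0.05% Triton X-100, 1% formaldehyde, 1 ug/ml Hoechst) and their nuclei counted on 4× images. Treatment had been applied by pin tool the day after seeding as one drug alone or as a fixed anchor-drug dose with five library-drug doses (not always all listed) in √10 steps. Relative viability is the nuclei count of treated wells divided by that of vehicle wells, and values are medians of duplicate plates.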

ABC-1 = test system: ABC-1
How it was run: as §1

COR-L 105 = test system: COR-L 105
How it was run: as §1

COR-L23 = test system: COR-L23
How it was run: as §1

EKVX = test system: EKVX
How it was run: as §1

EPLC-272H = test system: EPLC-272H
How it was run: as §1

H3255 = test system: H3255
How it was run: as §1

HCC-15 = test system: HCC-15
How it was run: as §1

HCC-44 = test system: HCC-44
How it was run: as §1

HCC-827 = test system: HCC-827
How it was run: as §1

NCI-H1437 = test system: NCI-H1437
How it was run: as §1

NCI-H1650 = test system: NCI-H1650
How it was run: as §1

NCI-H1651 = test system: NCI-H1651
How it was run: as §1

NCI-H1792 = test system: NCI-H1792
How it was run: as §1

NCI-H1975 = test system: NCI-H1975
How it was run: as §1

NCI-H2087 = test system: NCI-H2087
How it was run: as §1

NCI-H358 = test system: NCI-H358
How it was run: as §1

NCI-H520 = test system: NCI-H520
How it was run: as §1

NCI-H647 = test system: NCI-H647
How it was run: as §1

NCI-H661 = test system: NCI-H661
How it was run: as §1

NCI-H727 = test system: NCI-H727
How it was run: as §1

UMC-11 = test system: UMC-11
How it was run: as §1

O=C(O)CCCCC(CCSCc1ccccc1)SCc1ccccc1 (stereo not given) [CPI-613] + CS(=O)(=O)CCNCc1ccc(-c2ccc3ncnc(Nc4ccc(OCc5cccc(F)c5)c(Cl)c4)c3c2)o1 [Lapatinib] (partner 2 µM)
relative viability (201T; first compound 5 µM): 1.09 | relative viability (201T; first compound 15.81 µM): 0.958 | relative viability (201T; first compound 50 µM): 0.953 | relative viability (201T; first compound 158.11 µM): 0.978 | relative viability (201T; first compound 500 µM): 0.972 | relative viability (ABC-1; first compound 5 µM): 1 | relative viability (ABC-1; first compound 15.81 µM): 0.948 | relative viability (ABC-1; first compound 50 µM): 1.33 | relative viability (ABC-1; first compound 158.11 µM): 1.27 | relative viability (ABC-1; first compound 500 µM): 1.57 | relative viability (COR-L 105; first compound 5 µM): 0.364 | relative viability (COR-L 105; first compound 15.81 µM): 0.323 | relative viability (COR-L 105; first compound 50 µM): 0.377 | relative viability (COR-L 105; first compound 158.11 µM): 0.291 | relative viability (COR-L 105; first compound 500 µM): 0.263 | relative viability (COR-L23; first compound 5 µM): 0.826 | relative viability (COR-L23; first compound 15.81 µM): 0.969 | relative viability (COR-L23; first compound 50 µM): 0.746 | relative viability (COR-L23; first compound 158.11 µM): 0.459 | relative viability (COR-L23; first compound 500 µM): 0.0098 | relative viability (EKVX; first compound 5 µM): 0.186 | relative viability (EKVX; first compound 15.81 µM): 0.208 | relative viability (EKVX; first compound 50 µM): 0.218 | relative viability (EKVX; first compound 158.11 µM): 0.193 | relative viability (EKVX; first compound 500 µM): 0.206 | relative viability (EPLC-272H; first compound 5 µM): 0.905 | relative viability (EPLC-272H; first compound 15.81 µM): 0.828 | relative viability (EPLC-272H; first compound 50 µM): 0.879 | relative viability (EPLC-272H; first compound 158.11 µM): 1 | relative viability (EPLC-272H; first compound 500 µM): 0.857 | relative viability (H3255; first compound 5 µM): 0.234 | relative viability (H3255; first compound 15.81 µM): 0.253 | relative viability (H3255; first compound 50 µM): 0.291 | relative viability (H3255; first compound 158.11 µM): 0.256 | relative viability (H3255; first compound 500 µM): 0.25 | relative viability (HCC-15; first compound 5 µM): 0.785 | relative viability (HCC-15; first compound 15.81 µM): 0.801 | relative viability (HCC-15; first compound 50 µM): 0.682 | relative viability (HCC-15; first compound 158.11 µM): 0.599 | relative viability (HCC-15; first compound 500 µM): 0.285 | relative viability (HCC-44; first compound 5 µM): 0.991 | relative viability (HCC-44; first compound 15.81 µM): 0.937 | relative viability (HCC-44; first compound 50 µM): 1.04 | relative viability (HCC-44; first compound 158.11 µM): 0.838 | relative viability (HCC-44; first compound 500 µM): 0.0306 | relative viability (HCC-827; first compound 5 µM): 0.212 | relative viability (HCC-827; first compound 15.81 µM): 0.181 | relative viability (HCC-827; first compound 50 µM): 0.196 | relative viability (HCC-827; first compound 158.11 µM): 0.173 | relative viability (HCC-827; first compound 500 µM): 0.0605 | relative viability (NCI-H1437; first compound 5 µM): 0.772 | relative viability (NCI-H1437; first compound 15.81 µM): 0.685 | relative viability (NCI-H1437; first compound 50 µM): 0.746 | relative viability (NCI-H1437; first compound 158.11 µM): 0.185 | relative viability (NCI-H1437; first compound 500 µM): 0.0285 | relative viability (NCI-H1650; first compound 5 µM): 0.584 | relative viability (NCI-H1650; first compound 15.81 µM): 0.662 | relative viability (NCI-H1650; first compound 50 µM): 0.719 | relative viability (NCI-H1650; first compound 158.11 µM): 0.082 | relative viability (NCI-H1650; first compound 500 µM): 0.023 | relative viability (NCI-H1651; first compound 5 µM): 0.732 | relative viability (NCI-H1651; first compound 15.81 µM): 0.71 | relative viability (NCI-H1651; first compound 50 µM): 0.781 | relative viability (NCI-H1651; first compound 158.11 µM): 0.312 | relative viability (NCI-H1651; first compound 500 µM): 0.0775 | relative viability (NCI-H1792; first compound 5 µM): 0.841 | relative viability (NCI-H1792; first compound 15.81 µM): 0.846 | relative viability (NCI-H1792; first compound 50 µM): 0.838 | relative viability (NCI-H1792; first compound 158.11 µM): 0.72 | relative viability (NCI-H1792; first compound 500 µM): 0.9 | relative viability (NCI-H1975; first compound 5 µM): 0.89 | relative viability (NCI-H1975; first compound 15.81 µM): 0.832 | relative viability (NCI-H1975; first compound 50 µM): 0.821 | relative viability (NCI-H1975; first compound 158.11 µM): 0.824 | relative viability (NCI-H1975; first compound 500 µM): 0.0608 | relative viability (NCI-H2087; first compound 5 µM): 1.06 | relative viability (NCI-H2087; first compound 15.81 µM): 0.934 | relative viability (NCI-H2087; first compound 50 µM): 0.72 | relative viability (NCI-H2087; first compound 158.11 µM): 0.525 | relative viability (NCI-H2087; first compound 500 µM): 0.012 | relative viability (NCI-H358; first compound 5 µM): 0.416 | relative viability (NCI-H358; first compound 15.81 µM): 0.436 | relative viability (NCI-H358; first compound 50 µM): 0.409 | relative viability (NCI-H358; first compound 158.11 µM): 0.296 | relative viability (NCI-H358; first compound 500 µM): 0.0347 | relative viability (NCI-H520; first compound 5 µM): 0.887 | relative viability (NCI-H520; first compound 15.81 µM): 0.634 | relative viability (NCI-H520; first compound 50 µM): 0.912 | relative viability (NCI-H520; first compound 158.11 µM): 0.264 | relative viability (NCI-H520; first compound 500 µM): 0.103 | relative viability (NCI-H647; first compound 5 µM): 0.962 | relative viability (NCI-H647; first compound 15.81 µM): 0.698 | relative viability (NCI-H647; first compound 50 µM): 0.757 | relative viability (NCI-H647; first compound 158.11 µM): 0.27 | relative viability (NCI-H647; first compound 500 µM): 0.0102 | relative viability (NCI-H661; first compound 5 µM): 0.419 | relative viability (NCI-H661; first compound 15.81 µM): 0.367 | relative viability (NCI-H661; first compound 50 µM): 0.581 | relative viability (NCI-H661; first compound 158.11 µM): 0.49 | relative viability (NCI-H661; first compound 500 µM): 0.576 | relative viability (NCI-H727; first compound 5 µM): 0.739 | relative viability (NCI-H727; first compound 15.81 µM): 0.609 | relative viability (NCI-H727; first compound 50 µM): 0.683 | relative viability (NCI-H727; first compound 158.11 µM): 0.673 | relative viability (NCI-H727; first compound 500 µM): 0.0973 | relative viability (UMC-11; first compound 5 µM): 1.08 | relative viability (UMC-11; first compound 15.81 µM): 1.11 | relative viability (UMC-11; first compound 50 µM): 0.789 | relative viability (UMC-11; first compound 158.11 µM): 0.438 | relative viability (UMC-11; first compound 500 µM): 0.119
